From ChEMBL document CHEMBL1150960, “Isolation, structure determination, and biological activity of dolastatin 12 and lyngbyastatin 1 from Lyngbya majuscula/Schizothrix calcicola cyanobacterial assemblages” (J Nat Prod, 1998)
Converted amounts (≈) assume the structure as drawn. The source made the active and inactive calls. The rule behind the calls is not given here. *1 amine or outer side, *2 acyl side, *3 side chain or, on linkers, in order; H or OH if unused. Where a SMILES comes first, the peptide text is derived from it. [ ]: non-standard residue; d: D form. X2 = CC[C@H](C)[C@H](OC(=O)[C@@H](C)[C@@H](CC)N[*:1])C(=O)[*:2]; X1 = C[C@H](N[*:1])C(=O)C(C)(C)C(=O)[*:2]; NMeY = CN[C@@H](Cc1ccc(O)cc1)C(=O)O; NMeF = CN[C@@H](Cc1ccccc1)C(=O)O; NMeI = CC[C@H](C)[C@H](NC)C(=O)O; NMeL = CN[C@@H](CC(C)C)C(=O)O; NMeV = CN[C@H](C(=O)O)C(C)C; NMeA = CN[C@@H](C)C(=O)O

Tests used:
MC-38 [1] = test: Cytotoxicity against mouse Colon 38 cells assessed as zone units at 12 ug/disk by Corbett soft agar disk diffusion assay; format: functional
[2] = Cytotoxicity against CFU-GM cells assessed as zone units at 12 ug/disk by Corbett soft agar disk diffusion assay; format: functional
L1210 [3] = test: Cytotoxicity against mouse L1210 cells assessed as zone units at 12 ug/disk by Corbett soft agar disk diffusion assay; format: functional
[4] = Cytotoxicity against human H116 cells assessed as zone units at 12 ug/disk by Corbett soft agar disk diffusion assay; format: functional
A10 [5] = test: Effect on morphology in rat A10 cells assessed as formation of binuclear cells at 0.01 to 2 ug/ml; format: functional, cell-based
KB = test: Cytotoxicity against human KB cells; format: functional
MC-38 [6] = test: Antitumor activity against mouse Colon 38 cells xenografted BDF mouse at 7.5 mg/kg, iv administered in QD 3-11 schedule; format: functional
MC-38 [7] = test: Cytotoxicity against mouse Colon 38 cells assessed as zone units at 2 ug/disk by Corbett soft agar disk diffusion assay; format: functional
Mus musculus [8] = test: Toxicity in mouse mammary 16/C cells xenografted C3H mouse assessed as mortality at 3.2 mg/kg, iv administered in d 1,2 schedule; format: organism-based; set-up: dose 3.2 mg/kg, route intravenous; details: in vivo
LoVo = test: Cytotoxicity against human LoVo cells; format: functional
Mus musculus [9] = test: Toxicity in mouse Colon 38 cells xenografted BDF mouse assessed as body weight loss at nadir at 10.3 mg/kg, iv administered in QD 3-11 schedule; format: organism-based, MC-38; set-up: dose 10.3 mg/kg, route intravenous; details: in vivo
Mus musculus [10] = test: Toxicity in mouse mammary 16/C cells xenografted C3H mouse assessed as mortality at 6.4 mg/kg, iv administered in QD 1-8 schedule; format: organism-based; set-up: dose 6.4 mg/kg, route intravenous; details: in vivo
[11] = Cytotoxicity against human H116 cells assessed as zone units at 2 ug/disk by Corbett soft agar disk diffusion assay; format: functional
Mus musculus [12] = test: Necrosis in iv dosed mouse assessed as inflamed, bloody, upper GI tract with pancreatic damage and hemorrhage in lungs; format: organism-based, Gastrointestinal tract; details: in vivo
A10 [13] = test: Induction of apoptosis in rat A10 cells assessed as apoptotic nuclei at 2 ug/ml; format: functional, cell-based
[14] = Cytotoxicity against CFU-GM cells assessed as zone units at 2 ug/disk by Corbett soft agar disk diffusion assay; format: functional
A10 [15] = test: Inhibition of cytokinesis in rat A10 cells at 0.01 to 2 ug/ml; format: functional, cell-based
MC-38 [16] = test: Antitumor activity against mouse Colon 38 cells xenografted BDF mouse at 10.3 mg/kg, iv administered in QD 3-11 schedule; format: functional
A10 [17] = test: Effect on morphology in rat A10 cells assessed as microtubule loss at 0.01 to 2 ug/ml after 24 hrs by […]; format: functional, cell-based
Mus musculus [18] = test: Toxicity in mouse Colon 38 cells xenografted BDF mouse assessed as body weight loss at nadir at 7.5 mg/kg, iv administered in QD 3-11 schedule; format: organism-based, MC-38; set-up: dose 7.5 mg/kg, route intravenous; details: in vivo
Mus musculus [19] = test: Toxicity in mouse mammary 16/C cells xenografted C3H mouse assessed as body weight loss at nadir at 3.2 mg/kg, iv administered in d 1,2 schedule; format: organism-based; set-up: dose 3.2 mg/kg, route intravenous; details: in vivo
Mus musculus [20] = test: Toxicity in mouse mammary 16/C cells xenografted C3H mouse assessed as body weight loss at nadir at 6.4 mg/kg, iv administered in QD 1-8 schedule; format: organism-based; set-up: dose 6.4 mg/kg, route intravenous; details: in vivo
[21] = Cytotoxicity against mouse mammary 17/Adr cells assessed as zone units at 2 ug/disk by Corbett soft agar disk diffusion assay; format: functional
[22] = Antitumor activity against mouse mammary 16/C cells xenografted C3H mouse at 6.4 mg/kg, iv administered in QD 1-8 schedule; format: functional
[23] = Antitumor activity against mouse mammary 16/C cells xenografted C3H mouse at 3.2 mg/kg, iv administered in d 1,2 schedule; format: functional
L1210 [24] = test: Cytotoxicity against mouse L1210 cells assessed as zone units at 2 ug/disk by Corbett soft agar disk diffusion assay; format: functional
Mus musculus [25] = test: Toxicity in mouse Colon 38 cells xenografted BDF mouse assessed as mortality at 13 mg/kg, iv administered in QD 3-11 schedule; format: organism-based, MC-38; set-up: dose 13 mg/kg, route intravenous; details: in vivo
Mus musculus [26] = test: Toxicity in mouse Colon 38 cells xenografted BDF mouse assessed as body weight loss at nadir at 13 mg/kg, iv administered in QD 3-11 schedule; format: organism-based, MC-38; set-up: dose 13 mg/kg, route intravenous; details: in vivo
A10 [27] = test: Inhibition of cytokinesis in rat A10 cells; format: functional, cell-based
Mus musculus [28] = test: Toxicity in mouse mammary 16/C cells xenografted C3H mouse assessed as mortality at 4.8 mg/kg, iv administered in d 1,2 schedule; format: organism-based; set-up: dose 4.8 mg/kg, route intravenous; details: in vivo
[29] = Antitumor activity against mouse mammary 16/C cells xenografted C3H mouse at 11.7 mg/kg, iv administered in QD 1-9 schedule; format: functional
A10 [30] = test: Induction of apoptosis in rat A10 cells assessed as fragmented cell nuclei at 0.2 ug/ml; format: functional, cell-based
Mus musculus [31] = test: Toxicity in mouse mammary 16/C cells xenografted C3H mouse assessed as body weight loss at nadir at 11.7 mg/kg, iv administered in QD 1-9 schedule; format: organism-based; set-up: dose 11.7 mg/kg, route intravenous; details: in vivo
A10 [32] = test: Effect on morphology in rat A10 cells assessed as formation of binuclear cells; format: functional, cell-based
A10 [33] = test: Effect on morphology in rat A10 cells assessed as loss of cellular microfilament network at 2 ug/ml after 24 hrs by rhodamine-phalloidin staining; format: functional, cell-based
MC-38 [34] = test: Antitumor activity against mouse Colon 38 cells xenografted BDF mouse at 13 mg/kg, iv administered in QD 3-11 schedule; format: functional
A10 [35] = test: Effect on morphology in rat A10 cells assessed as loss of cellular microfilament network at 0.2 ug/ml after 24 hrs by rhodamine-phalloidin staining; format: functional, cell-based
Mus musculus [36] = test: Toxicity in mouse mammary 16/C cells xenografted C3H mouse assessed as mortality at 11.7 mg/kg, iv administered in QD 1-9 schedule; format: organism-based; set-up: dose 11.7 mg/kg, route intravenous; details: in vivo
MC-38 [37] = test: Antitumor activity against mouse Colon 38 cells xenografted BDF mouse at 15 mg/kg, iv administered in d 3,4,7-10 schedule; format: functional, organism-based; set-up: dose 15 mg/kg
A10 [38] = test: Effect on morphology in rat A10 cells assessed as microtubule loss at 2 ug/ml after 24 hrs by […]; format: functional, cell-based
Mus musculus [39] = test: Antitumor activity against mouse mammary 16/C cells xenografted C3H mouse at 4.8 mg/kg, iv administered in d 1,2 schedule; format: functional, organism-based; set-up: dose 4.8 mg/kg
A10 [40] = test: Effect on morphology in rat A10 cells assessed as microtubule loss at 0.2 ug/ml after 24 hrs by […]; format: functional, cell-based
Mus musculus [41] = test: Toxicity in mouse mammary 16/C cells xenografted C3H mouse assessed as body weight loss at nadir at 4.8 mg/kg, iv administered in d 1,2 schedule; format: organism-based; set-up: dose 4.8 mg/kg, route intravenous; details: in vivo
Mus musculus [42] = test: Toxicity in mouse Colon 38 cells xenografted BDF mouse assessed as body weight loss at nadir at 15 mg/kg, iv administered in d 3,4,7-10 schedule; format: organism-based, MC-38; set-up: dose 15 mg/kg, route intravenous; details: in vivo

## CC[C@H](C)[C@@H]1OC(=O)[C@@H](C)[C@@H](CC)NC(=O)[C@H](C)NC(=O)C(C)(C)C(=O)[C@H](C)NC(=O)[C@H](Cc2ccc(OC)cc2)N(C)C(=O)[C@H](C(C)C)N(C)C(=O)CNC(=O)[C@H]([C@@H](C)CC)N(C)C(=O)CNC1=O [MAJUSCULAMIDE] (cyclo(A[X2]G[NMeI]G[NMeV][NMeY](Me)[X1]))
MC-38 [1]
  Activity: 730 Zone units
[2]
  Activity: 450 Zone units
L1210 [3]
  Activity: 500 Zone units
[4]
  Activity: 710 Zone units

## CC[C@H](C)[C@@H]1OC(=O)[C@@H](C)[C@@H](CC)NC(=O)[C@H](C)N(C)C(=O)C(C)(C)C(=O)[C@H](C)NC(=O)[C@H](Cc2ccccc2)N(C)C(=O)[C@H](C(C)C)N(C)C(=O)CNC(=O)[C@H](CC(C)C)N(C)C(=O)CNC1=O [DOLASTATIN 12] (cyclo(G[NMeL]G[NMeV][NMeF][X1][NMeA][X2]))
A10 [5]
  Activity: Active
KB
  MIC: < 0.05 µg/mL
MC-38 [6]
  T/C: 92%
MC-38 [7]
  Activity: 630 Zone units
Mus musculus [8]
  Activity: Toxic
LoVo
  MIC: 0.08 µg/mL (≈ 0.0825 µM)
Mus musculus [9]
  Activity: -15%
Mus musculus [10]
  Activity: Non-toxic
[11]
  Activity: 480 Zone units
Mus musculus [12]
  Activity: Toxic
A10 [13]
  Activity: Active
[14]
  Activity: 500 Zone units
A10 [15]
  Activity: Active
MC-38 [16]
  T/C: 41%
A10 [17]
  Activity: inactive
Mus musculus [18]
  Activity: -8%
Mus musculus [19]
  Activity: -13%
Mus musculus [20]
  Activity: -3%
[21]
  Activity: 270 Zone units
[22]
  T/C: 86%
[23]
  T/C: 68%
L1210 [24]
  Activity: 420 Zone units

## CC[C@H](C)[C@@H]1OC(=O)[C@@H](C)[C@@H](CC)NC(=O)[C@H](C)N(C)C(=O)C(C)(C)C(=O)[C@H](C)NC(=O)[C@H](Cc2ccc(OC)cc2)N(C)C(=O)[C@H](C(C)C)N(C)C(=O)CNC(=O)[C@H](CC(C)C)N(C)C(=O)CNC1=O [epilyngbyastatin 1] (cyclo(G[NMeL]G[NMeV][NMeY](Me)[X1][NMeA][X2]))
Mus musculus [25]
  Activity: Non-toxic
Mus musculus [26]
  Activity: -3%
A10 [27]
  Activity: inactive
KB
  MIC: 0.1 µg/mL (≈ 0.1 µM)
MC-38 [7]
  Activity: 670 Zone units
LoVo
  MIC: 0.5 µg/mL (≈ 0.5 µM)
[11]
  Activity: 580 Zone units
Mus musculus [28]
  Activity: Toxic
[29]
  T/C: 61%
A10 [30]
  Activity: inactive
Mus musculus [31]
  Activity: -4%
Mus musculus [12]
  Activity: Toxic
A10 [13]
  Activity: Active
[14]
  Activity: 570 Zone units
A10 [32]
  Activity: inactive
A10 [33]
  Activity: Active
MC-38 [34]
  T/C: 93%
A10 [35]
  Activity: Active
Mus musculus [36]
  Activity: Non-toxic
MC-38 [37]
  Activity: Toxic
A10 [38]
  Activity: inactive
[21]
  Activity: 650 Zone units
Mus musculus [39]
  Activity: Toxic
A10 [40]
  Activity: inactive
Mus musculus [41]
  Activity: Toxic
L1210 [24]
  Activity: 450 Zone units
Mus musculus [42]
  Activity: -8%
